# From patent US20220175889A1, “NEW DOSAGE REGIMEN FOR INHALED VASOACTIVE INTESTINAL POLYPEPTIDE” (priority 2020, published 2022)
# Columns and labels:
# [1] = assay type: physicochemical; conditions: M-neb mobile mesh nebulizer MN-300/9
# [2] = tested on: patients with COVID-19 pulmonary involvement
# [3] = tested on: histamine-induced bronchoconstriction; conditions: single 375 μg inhaled; cited from earlier work
compound,measurement,setting,value
CC[C@H](C)[C@H](NC(=O)[C@H](CO)NC(=O)[C@H](CC(N)=O)NC(=O)[C@H](CC(C)C)NC(=O)[C@H](Cc1ccc(O)cc1)NC(=O)[C@H](CCCCN)NC(=O)[C@H](CCCCN)NC(=O)[C@@H](NC(=O)[C@H](C)NC(=O)[C@H](CCSC)NC(=O)[C@H](CCC(N)=O)NC(=O)[C@H](CCCCN)NC(=O)[C@H](CCCNC(=N)N)NC(=O)[C@H](CC(C)C)NC(=O)[C@H](CCCNC(=N)N)NC(=O)[C@@H](NC(=O)[C@H](Cc1ccc(O)cc1)NC(=O)[C@H](CC(N)=O)NC(=O)[C@H](CC(=O)O)NC(=O)[C@@H](NC(=O)[C@H](Cc1ccccc1)NC(=O)[C@@H](NC(=O)[C@H](C)NC(=O)[C@H](CC(=O)O)NC(=O)[C@H](CO)NC(=O)[C@@H](N)Cc1c[nH]cn1)C(C)C)[C@@H](C)O)[C@@H](C)O)C(C)C)C(=O)N[C@@H](CC(C)C)C(=O)N[C@@H](CC(N)=O)C(N)=O [Aviptadil],Mass Median Aerodynamic Diameter,[1],4±0.16 μm
same,Tolerability,"[2]; human, in vivo",well tolerated
same,Distribution of AEs (%),"[2]; share of the 47 adverse events observed in Treatment Group, 16 patients treatment, 13 placebo",40.43%
same,Entering Intensive Care (%),"[2]; treatment group, Age >= 60",25%
same,Protection against histamine-induced bronchoconstriction,[3],the activity could not be shown
same,Side effects,[3],no side effects were reported
